# Measured values from patent publication US9855245B2, “Methods for improving lipid profiles using atrasentan” (AbbVie Inc., priority 2013, dated 2018).
# Structures can show the parent of a compound that is named as a salt. Where two headings read alike, the source gives them in different places. Non-standard residues stand in square brackets, D forms with d. Residues, ends and D or L forms follow the SMILES beside them.
# Columns and labels:
# [1] = cited from earlier work
# [2] = system: subjects with type 2 diabetes and nephropathy; experiment: Example 3: Phase 2b randomized, double-blind, placebo-controlled 8-week study with thoracic bioimpedance; format: in vivo, human; settings: dose of 0.5 mg
# Excerpt: This study also included measurement of thoracic bioimpedance to assess the potential for thoracic fluid retention with atrasentan.
# An equal percentage of subjects in all 3 groups experienced an adverse event (81.3%). […] (Table 17).
# A mean decrease of 4 ohms in thoracic bioimpedance, as measured by the ZOE® Fluid Status Monitor, is considered clinically indicative of thoracic fluid overload. Mean thoracic bioimpedance fluctuated in all treatment groups over time, with greater mean changes in the 2 atrasentan groups than in the placebo group.
# [3] = system: ob-ZSF1 rats; experiment: Example 5: preclinical study of hypotensive synergy, mean arterial pressure; format: in vivo, rat; settings: 10 mg/kg/day for 12 weeks
# Excerpt: In the example, a preclinical animal model is used to evaluate whether atrasentan and an ARB cause a synergistic hypotensive effect.
smiles,measurement,setting,value
CC(C)C[C@@H]1NC(=O)[C@@H](C(C)C)NC(=O)[C@@H]2CCCN2C(=O)[C@@H](CC(=O)O)NC(=O)[C@@H](Cc2c[nH]c3ccccc23)NC1=O [BQ-123] (cyclo(L[dW][dD]P[dV])),"mean arterial pressure, mean area under curve +/− SEM",[1]; BQ-123 alone,−2.3 mmHg
same,"mean arterial pressure, mean area under curve +/− SEM",[1]; BQ-123 plus enalapril,−5.1 mmHg
CCCCN(CCCC)C(=O)CN1C[C@H](c2ccc3c(c2)OCO3)[C@@H](C(=O)O)[C@@H]1c1ccc(OC)cc1 [atrasentan HCl],reduction in UACR,[2],not demonstrated to result in a statistically significant reduction in UACR
"CCCCc1nc(Cl)c(CO)n1Cc1ccc(-c2ccccc2-c2nn[nH]n2)cc1 [losartan, reference compound]",mean arterial pressure (MAP),[3],significant decrease
